Reference: patent publication US5621133A (priority 1995, dated 1997)
pEC50, pKi: −log10 of the molar value. Where a name gives a salt, the structure may show the parent alone. Read-outs that look alike come from different tables or passages of the source.

Key:
[1] = molecular target: dopamine D-2 receptor (Rattus norvegicus, UniProt P61169); experiment: biochemical; type: binding; conditions: rat caudate, [125I]-p-aminophenylethyl spiroperidol
Procedure: Homogenized rat caudate was the source of the D-2 receptors. […] The molar affinity of the compound for the receptor binding site was calculated by the same method used for the D-1 receptor assay, assuming a competitive interaction between the compound and the radiolabeled ligand.

[2] = test system: dopamine D-1 receptor; conditions: for Intrinsic Activity (adenylate cyclase assay): dopamine = 100, goldfish retina or rat striatum; for pEC50: read-out: EC50 (agonist activity in adenylate cyclase assay), tissue from goldfish retina or rat striatum
Procedure: In order to determine agonist activity, cell-free tissue homogenates are incubated in an ionic buffer solution containing ATP and the compound being evaluated. The tissue was obtained from either goldfish retina or rat striatum.

[3] = molecular target: dopamine D-1 receptor (Rattus norvegicus, UniProt P18901); experiment: biochemical; conditions: D-1 Ki, rat caudate, [125I]SCH-23982
Sequence of dopamine D-1 receptor (Rattus norvegicus, UniProt P18901) (P18901 whole entry): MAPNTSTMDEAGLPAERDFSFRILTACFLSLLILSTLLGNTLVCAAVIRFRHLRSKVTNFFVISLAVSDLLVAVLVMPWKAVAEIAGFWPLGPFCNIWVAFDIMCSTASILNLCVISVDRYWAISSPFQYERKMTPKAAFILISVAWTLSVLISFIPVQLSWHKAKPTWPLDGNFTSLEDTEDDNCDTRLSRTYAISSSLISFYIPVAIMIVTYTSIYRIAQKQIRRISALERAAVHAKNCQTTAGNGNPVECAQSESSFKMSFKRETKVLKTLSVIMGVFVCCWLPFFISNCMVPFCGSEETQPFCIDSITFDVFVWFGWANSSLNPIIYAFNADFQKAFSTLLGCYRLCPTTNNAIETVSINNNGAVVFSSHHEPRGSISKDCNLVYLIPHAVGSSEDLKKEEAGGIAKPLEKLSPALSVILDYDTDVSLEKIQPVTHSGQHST
Source text: The compounds compete with the radiolabeled ligand for occupancy of the receptors and the molar potency of each compound was quantified.
The Ki values are inversely proportional to the affinity of the compound for the receptor.

Sequence of dopamine D-2 receptor (P61169 whole entry): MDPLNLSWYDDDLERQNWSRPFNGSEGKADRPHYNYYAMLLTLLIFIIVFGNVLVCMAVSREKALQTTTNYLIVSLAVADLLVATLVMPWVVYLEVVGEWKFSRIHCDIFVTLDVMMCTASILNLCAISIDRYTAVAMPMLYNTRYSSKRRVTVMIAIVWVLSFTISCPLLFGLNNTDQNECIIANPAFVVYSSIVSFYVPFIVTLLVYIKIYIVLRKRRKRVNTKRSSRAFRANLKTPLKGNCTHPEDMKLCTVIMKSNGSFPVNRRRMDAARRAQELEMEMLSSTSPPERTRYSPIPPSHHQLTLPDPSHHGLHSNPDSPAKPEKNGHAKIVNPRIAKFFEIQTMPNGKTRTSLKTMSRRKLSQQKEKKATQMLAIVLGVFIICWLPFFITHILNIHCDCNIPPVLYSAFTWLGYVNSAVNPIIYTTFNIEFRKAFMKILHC

Compound | pKi ([1]; read-out: D-2 Ki) | Intrinsic Activity (adenylate cyclase assay) [2] | pEC50 [2] | pKi [3] | pKi ([1]; D-2 Ki)
NC[C@H]1C[C@@H](c2cccc(O)c2)Cc2c1ccc(O)c2O (relative stereo) [Example 42] | 5.41 | 98 | 8.22 | 7.21 | –
NC[C@H]1C[C@@H](c2ccc3ccccc3c2)Cc2c1ccc(O)c2O (relative stereo) [Example 43] | 4.92 | 70 | 6.82 | 5.62 | –
COc1ccc(OC[C@H]2Cc3c(ccc(O)c3O)[C@@H](CN)O2)cc1 (relative stereo) [Example 53] | 6.19 | 67 | 7.64 | 6.60 | –
NC[C@H]1O[C@@H](COc2ccccc2-c2ccccc2)Cc2c1ccc(O)c2O (relative stereo) [Example 56] | 5.89 | 46 | 6.37 | 5.66 | –
CC(C)(C)c1ccc(OC[C@H]2Cc3c(ccc(O)c3O)[C@@H](CN)O2)cc1 (relative stereo) [Example 57] | 6.14 | 56 | 7.52 | 5.96 | –
NC[C@@H]1O[C@H](COc2ccc(Br)cc2)Cc2c1ccc(O)c2O (relative stereo) [Example 58] | 5.92 | 63 | 7.72 | 6.59 | –
NC[C@@H]1O[C@H](Cc2ccccc2)Cc2c1ccc(O)c2O (relative stereo) [Example 60] | 5.66 | 93 | 7.43 | 6.28 | –
NC[C@@H]1O[C@H](CCc2ccccc2)Cc2c1ccc(O)c2O (relative stereo) [Example 61] | 5.89 | 76 | 8.22 | 6.54 | –
NC[C@@H]1O[C@H](c2ccccc2)Cc2c1cc(Br)c(O)c2O (relative stereo) [Example 62] | 5.43 | 111 | 6.77 | 6.68 | –
NC[C@@H]1O[C@H](C2CCCCC2)Cc2c1ccc1c2OC2(CCCCC2)O1 (relative stereo) [Example 63] | < 5.00 | 43 | 6.15 | 4.15 | –
CCCCCCCCCC[C@@H]1Cc2c(ccc(O)c2O)[C@H](CN)O1 (relative stereo) [Example 65] | 4.80 | 91 | 6.49 | 4.85 | –
CCCCCC[C@@H]1Cc2c(ccc(O)c2O)[C@H](CN)O1 (relative stereo) [Example 68] | 5.26 | 90 | 7.85 | 7.00 | –
NC[C@@H]1O[C@H](c2ccc(Br)cc2)Cc2c1ccc(O)c2O (relative stereo) [Example 69] | 5.57 | 108 | 7.14 | 7.06 | –
C=CCC[C@@H]1Cc2c(ccc(O)c2O)[C@H](CN)O1 (relative stereo) [Example 73] | 4.47 | 138 | 6.80 | 7.19 | –
NC[C@@H]1O[C@H](COCc2ccccc2)Cc2c1ccc(O)c2O (relative stereo) [Example 75] | 5.34 | 60 | 6.54 | 6.32 | –
NC[C@@H]1O[C@H](CC2CCCC2)Cc2c1ccc(O)c2O (relative stereo) [Example 78] | 6.09 | 147 | 7.82 | 7.31 | –
CCCC[C@@H]1Cc2c(ccc(O)c2O)[C@H](CN)O1 (relative stereo) [Example 79] | 6.04 | 151 | 8.15 | 6.14 | –
NC[C@@H]1O[C@H](c2ccc(I)cc2)Cc2c1ccc(O)c2O (relative stereo) [Example 80] | 5.96 | 161 | 8.10 | 7.85 | –
NC[C@@H]1O[C@H](C2CCCCC2)Cc2c1cc(Br)c(O)c2O (relative stereo) [Example 81] | 5.34 | 61 | 7.17 | 6.68 | –
COc1cccc([C@@H]2Cc3c(ccc(O)c3O)[C@H](CN)O2)c1 (relative stereo) [Example 82] | 6.09 | 107 | 8.15 | 7.96 | –
NC[C@@H]1O[C@H](CN2Cc3ccccc3C2=O)Cc2c1ccc(O)c2O (relative stereo) [Example 87] | 6.15 | 54 | 7.30 | 4.96 | –
NC[C@@H]1O[C@H](CCC2CCCCC2)Cc2c1ccc(O)c2O (relative stereo) [Example 91] | < 5.00 | 135 | 6.17 | 6.54 | –
CCOC(=O)CC(=O)NC[C@@H]1Cc2c(ccc(O)c2O)[C@H](CN)O1 (relative stereo) [Example 92] | 5.27 | 69 | 6.22 | 5.82 | –
NC[C@H]1O[C@@H](c2ccc(C(F)(F)F)cc2)Cc2c1ccc(O)c2O (relative stereo) [Example 98] | 5.72 | 108 | 7.74 | 6.66 | –
NC[C@H]1O[C@@H](c2cccc(C(F)(F)F)c2)Cc2c1ccc(O)c2O (relative stereo) [Example 99] | 5.05 | 134 | 8.30 | 7.66 | –

Compound | pKi ([1]; read-out: D-2 Ki) | Intrinsic Activity (adenylate cyclase assay) [2] | pEC50 [2] | pKi [3] | pKi ([1]; D-2 Ki)
NC[C@@H]1O[C@H](C23CC4CC(CC(C4)C2)C3)Cc2c(O)c(O)cc(Br)c21 (relative stereo) [Example 107, 1-Aminomethyl-8-bromo-adamantyl-5,6-dihydroxy-3,4-dihydro-1H-2-benzopyran Hydrobromide] | < 5.00 | – | – | 5.60 | –
Oc1ccc2c(c1O)C[C@H](C1CCCCC1)O[C@@H]2CNC1CC1 (relative stereo) [Example 114] | 6.05 | 60 | 7.22 | 6.38 | –
Oc1ccc2c(c1O)C[C@H](C1CCCCC1)O[C@@H]2CN1CCCC1 (relative stereo) [Example 115] | 5.52 | 68 | 5.66 | 4.92 | –
CN(C)C[C@H]1O[C@@H](CC2CCCCC2)Cc2c1ccc(O)c2O (relative stereo) [Example 148A] | 5.59 | – | – | 6.15 | –
CC(C)(C)[C@@H]1Cc2c(ccc(O)c2O)[C@H](CN)C1 (relative stereo) [Example 195] | – | 73 | 6.40 | 6.60 | –
COC(=O)CCC(=O)Oc1ccc2c(c1OC(=O)CCC(=O)OC)CC(c1ccccc1)C=C2CN (centres unmarked) [Example 19] | < 5.00 | – | – | 6.22 | –
NCC1=CC(c2ccccc2)Cc2c1ccc(OC(=O)NCc1ccccc1)c2OC(=O)NCc1ccccc1 (centres unmarked) [Example 30] | – | – | – | < 5.00 | 4.49
CC(C)(C)C1Cc2c(ccc(O)c2O)C(CN)O1 (centres unmarked) [Example 102] | < 5.00 | 113 | – | – | –
NC[C@@H]1O[C@H](C23CC4CC(CC(C4)C2)C3)Cc2c1cc(F)c(O)c2O [Example 103] | 5.70 | 88 | – | – | –
Oc1ccc2c(c1O)C[C@@H](c1ccccc1)O[C@H]2[C@@H]1CCCN1 [Example 124] | 6.33 | – | – | 5.72 | –
NCC1=CC2(CCCCCC2)Cc2c1ccc(O)c2O [Example 188, 1'-Aminomethyl-5,6'-dihydroxyspiro[cycloheptane-1,3'-(3',4'-dihydro-2'-H-naphthalene)]hydrobromide] | 5.15 | – | – | 5.70 | –
CCCC1(CCC)C=C(CN)c2ccc(O)c(O)c2C1 [Example 192] | < 5.00 | – | – | 5.49 | –
CCCC1(CCC)Cc2c(ccc(O)c2O)C(CN)C1 (centres unmarked) [Example 198] | – | – | – | 5.43 | –
Oc1ccc2c(c1O)CC(c1ccccc1)C1=C2CNCC1 (centres unmarked) [Example 200] | 5.48 | 120 | – | – | –
Oc1ccc2c(c1O)C[C@@H](c1ccccc1)C1=C2CNCC1 [Example 201] | 5.82 | 110 | – | – | –
Oc1ccc2c(c1O)CC(C1CCCCC1)C1=C2CNCC1 (centres unmarked) [Example 202] | 5.80 | 84 | – | – | –
Oc1ccc2c(c1O)CC1(CCCCCCC1)C1=C2CNCC1 [Example 207] | 5.92 | 64 | – | – | –
CCCC1(CCC)Cc2c(ccc(O)c2O)C2=C1CCNC2 [Example 208] | 5.51 | – | – | 6.28 | –
CC(C)(C)CC1C=C(CN)c2ccc(O)c(O)c2C1 (centres unmarked) [Example 233] | < 5.00 | – | – | 5.49 | –
Oc1ccc2c(c1O)CC(C13CC4CC(CC(C4)C1)C3)C1=C2CNCC1 (centres unmarked) [Example 238] | < 5.00 | – | – | 5.29 | –
Oc1ccc2c(c1O)CC(c1ccccc1)C1=C2CNCC1 (centres unmarked) [Example 239] | 5.70 | 103 | – | – | –
CC(C)(C)CC1Cc2c(ccc(O)c2O)C2=C1CCNC2 (centres unmarked) [Example 242] | 5.70 | – | – | 5.82 | –
CN1CCC2=C(C1)c1ccc(O)c(O)c1CC2CC1CCCC1 (centres unmarked) [Example 245] | 6.74 | – | – | 6.46 | –
CN1CCC2=C(C1)c1ccc(O)c(O)c1CC21CCCCCCCC1 [Example 248] | 6.06 | – | – | 6.24 | –
